The experiment deals with Adult Boophilus microplus. Description: Topical application test on fully engorged adult Boophilus microplus ticks; overall reduction in anticipated reproduction (eggs laid and hatching). It is filed as in vivo. To be noted: Rhipicephalus microplus, read-out: In Vitro Activity (topical application) vs. Adult Boophilus microplus % Effect; for inhibition at 0.5 µg/tick: 0.5 μg/tick; for inhibition at 1 µg/tick: 1 μg/tick; for inhibition at 2 µg/tick: 2 μg/tick; for inhibition at 4 µg/tick: 4 μg/tick; for inhibition at 8 µg/tick: 8 μg/tick; for inhibition at 10 µg/tick: 10 μg/tick. How it is done: In one test, five freshly collected, fully engorged Boophilus microplus adult ticks are used for each acaricidal compound. Using a micro-pipette, 10 micro-liters of a solution containing 10 micro-grams of the acaricidal compound in ethanol or acetone, is applied to the dorsal surface of each of the ticks. The treated ticks are placed in weighted 1"×2" glass vials, weighted and stored at 26° C. and 80% relative humidity in plastic boxes for two weeks. The ticks are then removed from the vials and the vials weighted to give the weight of eggs laid by the ticks. Any reduction in the egg laying of the treated ticks is caculated as a percentage of the eggs laid by untreated control ticks.
The eggs are returned to the incubator for a further 3 weeks after which time the percentage of eggs hatching is estimated.
The percentage effect is calculated as the overall reduction in the anticipated reproduction of the ticks using the weight of eggs laid and the percentage of eggs hatching.
The test may be repeated using smaller amounts of the acaricidal compound for sufficiently active compounds.
The activity of many of the compounds of the Examples detailed hereinafter against the tick Boophilus microplus has been determined.

Turning to `CCCCCCCCCCCCCCC[N+]1=C2SC=C(c3ccccc3)N2CCCC1` [Example 26, 9-Pentadecyl-3-phenyl-5,6,7,8-tetrahydrothiazolo[3,2-a][1,3]diazepinium bromide], the inhibition at 0.5 µg/tick amounted to 14%, the inhibition at 1 µg/tick was found to be 12%, the inhibition at 2 µg/tick was determined as 43% and the inhibition at 4 µg/tick was 61%. Moreover, the inhibition at 8 µg/tick turned out to be 92% and the inhibition at 10 µg/tick was 99%.
As for `CCCCCCCCCCCCCCCCCC[N+]1=C2SC(C)=C(c3ccccc3)N2CCC1` [Example 12], the inhibition at 0.5 µg/tick is 16%, the inhibition at 1 µg/tick turned out to be 19%, the inhibition at 2 µg/tick stood at 22% and the inhibition at 4 µg/tick turned out to be 38%. The inhibition at 8 µg/tick worked out at 87% and the inhibition at 10 µg/tick turned out to be 100%.
As to `CCCCCCCCCCCCCCCCC[N+]1=C2SC=C(C)N2CCC1` [Example 9], the inhibition at 10 µg/tick amounted to 42%.
For `CCCCCCCCCCCCCCCCCC[N+]1=C2SC=C(c3ccccc3)N2CCCC1` [Example 22], the inhibition at 10 µg/tick was 57%.
Turning to `CCCCCCCCCCCCCCCC[N+]1=C2SC=C(C)N2CCC1` [Example 19], the inhibition at 2 µg/tick came out at 0%, the inhibition at 4 µg/tick was 9%, the inhibition at 8 µg/tick was 28% and the inhibition at 10 µg/tick is 49%.
Take `CCCCCCCCCCCCCCCC[N+]1=C2SC(C)=C(c3ccccc3)N2CCCC1` [Example 23, 9-hexadecyl-2-methyl-3-phenyl-5,6,7,8-tetrahydro-thiazolo[3,2-a][1,3]diazepinium bromide]: the inhibition at 0.5 µg/tick stood at 6%, the inhibition at 1 µg/tick is 60%, the inhibition at 2 µg/tick was 98% and the inhibition at 4 µg/tick came to 100%. The inhibition at 8 µg/tick was determined as 100% and the inhibition at 10 µg/tick is 100%.
In the case of `CCCCCCCCCCCCCC[N+]1=C2SC=C(C)N2CCCC1` [Example 28], the inhibition at 1 µg/tick came out at 13%, the inhibition at 2 µg/tick came to 52%, the inhibition at 4 µg/tick stood at 74% and the inhibition at 8 µg/tick stood at 83%. Moreover, the inhibition at 10 µg/tick was determined as 100%.
As to `CCCCCCCCCCCCCCCCCC[N+]1=C2SC=C(C)N2CCCC1` [Example 25], the inhibition at 1 µg/tick is 20%, the inhibition at 2 µg/tick came out at 40%, the inhibition at 4 µg/tick was 82% and the inhibition at 8 µg/tick came out at 78%. Moreover, the inhibition at 10 µg/tick was determined as 98%.
Take `CCCCCCCCCCCCCCCC[N+]1=C2SC(C)=C(c3ccccc3)N2CCC1` [Example 7, 8-cetyl, 2-methyl-3-phenyl-6,7-dihydro[5H]thiazolo[3,2-a]pyrimidinium bromide]: the inhibition at 0.5 µg/tick was 31%, the inhibition at 1 µg/tick was 54%, the inhibition at 2 µg/tick was 92% and the inhibition at 4 µg/tick is 99%. Further, the inhibition at 8 µg/tick was 100% and the inhibition at 10 µg/tick amounted to 100%.
`CCCCCCCCCCCCCCCCC[N+]1=C2SC=C(C)N2CCCC1` [Example 30]: the inhibition at 1 µg/tick was 13%, the inhibition at 2 µg/tick stood at 47%, the inhibition at 4 µg/tick is 56% and the inhibition at 8 µg/tick amounted to 95%. Besides, the inhibition at 10 µg/tick was 100%.
`CCCCCCCCCCCCCCCC[N+]1=C2SC(c3ccccc3)=CN2CCC1` [Example 16]: the inhibition at 10 µg/tick was 33%.
For `CCCCCCCCCCCCCCCC[N+]1=C2SC=C(C)N2CCCC1` [Example 20, 9-cetyl-3-methyl-5,6,7,8-tetrahydro-thiazolo[3,2-a][1,3]diazepinium bromide], the inhibition at 0.5 µg/tick was 0%, the inhibition at 1 µg/tick amounted to 29%, the inhibition at 2 µg/tick came to 67% and the inhibition at 4 µg/tick turned out to be 99%. Also, the inhibition at 8 µg/tick came out at 100% and the inhibition at 10 µg/tick was 100%.
For `CCCCCCCCCCCCCC[N+]1=C2SC=C(c3ccccc3)N2CCCC1` [Example 29], the inhibition at 1 µg/tick was 19%, the inhibition at 2 µg/tick is 11%, the inhibition at 4 µg/tick amounted to 55% and the inhibition at 8 µg/tick amounted to 100%. In addition, the inhibition at 10 µg/tick was found to be 100%.
With `CCCCCCCCCCCCC[N+]1=C2SC=C(c3ccccc3)N2CCCC1` [Example 31], the inhibition at 4 µg/tick was 0%, the inhibition at 8 µg/tick stood at 52% and the inhibition at 10 µg/tick came out at 100%.
Take `CCCCCCCCCCCCCCC[N+]1=C2SC=C(c3ccccc3)N2CCC1` [Example 2]: the inhibition at 1 µg/tick came out at 16%, the inhibition at 2 µg/tick was 67%, the inhibition at 4 µg/tick was 77% and the inhibition at 8 µg/tick is 100%. Besides, the inhibition at 10 µg/tick was 100%.
Turning to `CCCCCCCCCCCCCCCCCC[N+]1=C2SC(C)=C(c3ccccc3)N2CC1` [Example 45], the inhibition at 10 µg/tick came to 88%.

Source of the values: patent publication US4162253A, “Acaricidal agents” (Pfizer Inc., priority 1975, dated 1979).
